Measurements from PubChem BioAssay (NCI).
Several values for one entry are separate records, joined by “and”; a condition that tells them apart may be missing. Identical values can stand only once.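 Protocol summary: plate cells (96-well), add compound at 5 concentrations, incubate 48 h, interpolate endpoints linearly. GI50: concentration for 50% inhibition of growth. TGI is the concentration that stops growth completely.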

Legend:
Assay in all cases: inhibition of tumour cell growth, NCI panel, 48 h
NCI-H460 lung = tested on: NCI-H460 lung
U251 CNS = tested on: U251 CNS
SR leukemia = tested on: SR leukemia
K-562 leukemia = tested on: K-562 leukemia
UACC-62 melanoma = tested on: UACC-62 melanoma
UACC-257 melanoma = tested on: UACC-257 melanoma
TK-10 renal = tested on: TK-10 renal
SNB-19 CNS = tested on: SNB-19 CNS
COLO 205 colon = tested on: COLO 205 colon
SK-MEL-2 melanoma = tested on: SK-MEL-2 melanoma

## CC1=C(C)C(=O)O[C@@H]([C@](C)(O)[C@]2(O)CC[C@@]3(O)[C@@H]4C[C@H](O)[C@]5(O)[C@@H](O)C=CC(=O)[C@]5(C)[C@H]4CC[C@]23C)C1
NCI-H460 lung
  TGI: > 100 µM
U251 CNS
  TGI: > 100 µM
SR leukemia
  TGI: 84.3 µM
K-562 leukemia
  TGI: > 100 µM
UACC-62 melanoma
  TGI: > 100 µM
UACC-257 melanoma
  TGI: > 100 µM
TK-10 renal
  TGI: > 100 µM
SNB-19 CNS
  TGI: > 100 µM
COLO 205 colon
  TGI: > 100 µM
SK-MEL-2 melanoma
  TGI: > 100 µM

## C#Cc1cccc(Nc2ncnc3ccc(OCCCCNCCS(C)(=O)=O)cc23)c1
NCI-H460 lung
  GI50: 10.5 µM
  TGI: > 25 µM
U251 CNS
  GI50: 6.43 µM
  TGI: > 23.3 µM
SR leukemia
  GI50: 6.55 µM
  TGI: 15.3 µM
K-562 leukemia
  GI50: 6.25 µM
  TGI: 14.6 µM
UACC-62 melanoma
  GI50: 4.82 µM
  TGI: 9.1 µM
UACC-257 melanoma
  GI50: 4.39 µM
  TGI: 8.38 µM
TK-10 renal
  GI50: 0.238 µM
  TGI: 6.27 µM
SNB-19 CNS
  GI50: 15.2 µM
  TGI: > 25 µM
COLO 205 colon
  GI50: 5.58 µM
  TGI: 12.3 µM
SK-MEL-2 melanoma
  GI50: 7.75 µM
  TGI: 17.8 µM

## COc1cc(N2C(=O)[C@H](c3ccccc3)C2c2ccc(SC)cc2)cc(OC)c1OC (stereo partly drawn)
NCI-H460 lung
  GI50: 0.0346 µM
  TGI: > 100 µM
U251 CNS
  GI50: 0.0375 µM
  TGI: > 100 µM
SR leukemia
  GI50: 0.0411 µM
  TGI: > 100 µM
K-562 leukemia
  GI50: 0.037 µM
  TGI: > 100 µM
UACC-62 melanoma
  GI50: 0.0484 µM
  TGI: 8.86 µM
UACC-257 melanoma
  GI50: 1.66 µM
  TGI: > 100 µM
TK-10 renal
  GI50: 0.638 µM
  TGI: > 100 µM
SNB-19 CNS
  GI50: 0.0422 µM
  TGI: > 100 µM
COLO 205 colon
  GI50: 0.0367 µM
  TGI: 1.46 µM
SK-MEL-2 melanoma
  GI50: 0.0489 µM
  TGI: > 100 µM

## CC(C)(C)c1cc(NC(=O)Nc2ccc(-c3cn4c(n3)sc3cc(OCCN5CCOCC5)ccc34)cc2)no1
NCI-H460 lung
  GI50: 3.72 µM and 0.657 µM and 4.56 µM
  TGI: 16.1 µM and 10.4 µM and > 10 µM
U251 CNS
  GI50: 0.941 µM and 0.511 µM and 2.72 µM
  TGI: 12.9 µM and 5.25 µM and > 10 µM
SR leukemia
  TGI: > 47.9 µM and 11.2 µM and > 10 µM
K-562 leukemia
  TGI: 11.9 µM and > 10 µM
UACC-62 melanoma
  GI50: 1.34 µM and 1.4 µM
  TGI: 15.2 µM and 9.53 µM
UACC-257 melanoma
  GI50: 9.01 µM and 3.43 µM and > 10 µM
  TGI: 23.5 µM and 16 µM and > 10 µM
TK-10 renal
  GI50: 11.7 µM and 4.12 µM and > 10 µM
  TGI: 24.1 µM and 17.3 µM and > 10 µM
SNB-19 CNS
  GI50: 3.46 µM and 1.71 µM and 4.26 µM
  TGI: 20.3 µM and 17.1 µM and > 10 µM
COLO 205 colon
  GI50: 7.75 µM and 1.21 µM and 1.76 µM
  TGI: > 45.7 µM and 8.31 µM and 8.55 µM
SK-MEL-2 melanoma
  GI50: 6.73 µM and 2.78 µM and > 10 µM
  TGI: 20.3 µM and 16.2 µM and > 10 µM

## O=C(Cc1nc2ccccc2o1)C(=O)Nc1cccc(Cl)c1
NCI-H460 lung
  TGI: > 100 µM
U251 CNS
  TGI: > 100 µM
SR leukemia
  TGI: > 100 µM
K-562 leukemia
  TGI: > 100 µM
UACC-62 melanoma
  TGI: > 100 µM
UACC-257 melanoma
  TGI: > 100 µM
TK-10 renal
  TGI: > 100 µM
SNB-19 CNS
  TGI: > 100 µM
COLO 205 colon
  TGI: > 100 µM
SK-MEL-2 melanoma
  TGI: > 100 µM

## O=C(/C=C/c1ccccc1O)c1ccc([N+](=O)[O-])cc1
NCI-H460 lung
  TGI: 50.5 µM
U251 CNS
  TGI: 28.5 µM
SR leukemia
  TGI: 63.6 µM
K-562 leukemia
  TGI: 71.6 µM
UACC-62 melanoma
  TGI: 31.2 µM
UACC-257 melanoma
  TGI: > 100 µM
TK-10 renal
  TGI: 77.2 µM
SNB-19 CNS
  TGI: 35.8 µM
COLO 205 colon
  TGI: 27.4 µM
SK-MEL-2 melanoma
  TGI: 66.8 µM

## CSc1nc2nn(Cc3ccccc3)cc2c(=O)[nH]1
NCI-H460 lung
  TGI: > 100 µM
U251 CNS
  TGI: > 100 µM
SR leukemia
  TGI: > 100 µM
K-562 leukemia
  TGI: > 100 µM
UACC-62 melanoma
  TGI: > 100 µM
UACC-257 melanoma
  TGI: > 100 µM
TK-10 renal
  TGI: > 100 µM
SNB-19 CNS
  TGI: > 100 µM
COLO 205 colon
  TGI: > 100 µM
SK-MEL-2 melanoma
  TGI: > 100 µM

## CC(C)(C)c1cc(/C=N/NC(=O)c2ccccc2NC(=O)c2cccs2)c(O)c(C(C)(C)C)c1
NCI-H460 lung
  GI50: 0.331 µM
  TGI: 1.98 µM
U251 CNS
  GI50: 0.7 µM
  TGI: 7.64 µM
SR leukemia
  GI50: 0.786 µM
  TGI: 3.6 µM
K-562 leukemia
  GI50: 1.1 µM
  TGI: 51.6 µM
UACC-62 melanoma
  GI50: 0.39 µM
  TGI: 14 µM
UACC-257 melanoma
  GI50: 6.18 µM
  TGI: > 100 µM
TK-10 renal
  GI50: 0.994 µM
  TGI: 18.1 µM
SNB-19 CNS
  GI50: 0.916 µM
  TGI: 71.1 µM
COLO 205 colon
  GI50: 0.412 µM
  TGI: 22.2 µM
SK-MEL-2 melanoma
  GI50: 20.2 µM
  TGI: > 100 µM

## O=C(CCc1ccccc1)NS(=O)(=O)c1ccccc1
NCI-H460 lung
  TGI: > 100 µM
U251 CNS
  TGI: > 100 µM
SR leukemia
  TGI: > 100 µM
K-562 leukemia
  TGI: > 100 µM
UACC-62 melanoma
  TGI: > 100 µM
UACC-257 melanoma
  TGI: > 100 µM
TK-10 renal
  TGI: > 100 µM
SNB-19 CNS
  TGI: > 100 µM
COLO 205 colon
  TGI: > 100 µM
SK-MEL-2 melanoma
  TGI: > 100 µM

## CCOc1ccc(/C=C/c2cc(OC)c(OC)c(OC)c2)cc1
NCI-H460 lung
  TGI: > 29.6 µM
U251 CNS
  TGI: 13.2 µM
SR leukemia
  TGI: > 100 µM
K-562 leukemia
  TGI: > 100 µM
UACC-62 melanoma
  TGI: > 100 µM
UACC-257 melanoma
  TGI: > 100 µM
TK-10 renal
  TGI: > 100 µM
SNB-19 CNS
  TGI: > 83.6 µM
COLO 205 colon
  TGI: 2.5 µM
SK-MEL-2 melanoma
  TGI: 20.7 µM

## Cn1c2c(c3ccccc31)CCN(CCCCN1CCN(c3ccccc3)CC1)C2=O
NCI-H460 lung
  TGI: > 93.8 µM
U251 CNS
  TGI: > 84.2 µM
SR leukemia
  TGI: > 100 µM
K-562 leukemia
  TGI: > 56 µM
UACC-62 melanoma
  TGI: > 68.7 µM
UACC-257 melanoma
  TGI: 26.6 µM
TK-10 renal
  TGI: > 90.4 µM
SNB-19 CNS
  TGI: > 100 µM
COLO 205 colon
  TGI: 26.2 µM
SK-MEL-2 melanoma
  TGI: > 77.6 µM

## COC(=O)c1ccc(/C=C(\c2ccc([N+](=O)[O-])o2)S(=O)(=O)c2ccc(NC(C)=O)cc2)o1
NCI-H460 lung
  TGI: 53.9 µM
U251 CNS
  TGI: 28.8 µM
SR leukemia
  TGI: 4.32 µM
K-562 leukemia
  TGI: 18.1 µM
UACC-62 melanoma
  TGI: 4.31 µM
UACC-257 melanoma
  TGI: 4.54 µM
TK-10 renal
  TGI: 16.2 µM
SNB-19 CNS
  TGI: 32.2 µM
COLO 205 colon
  TGI: 7.56 µM
SK-MEL-2 melanoma
  TGI: 39.2 µM

## Cc1cnc2oc3ccc(O)cc3c2c1-c1ccccc1
NCI-H460 lung
  GI50: 19.7 µM
  TGI: > 100 µM
U251 CNS
  GI50: 17.9 µM
  TGI: 51 µM
SR leukemia
  GI50: > 100 µM
  TGI: > 100 µM
K-562 leukemia
  GI50: > 100 µM
  TGI: > 100 µM
UACC-62 melanoma
  GI50: 6.02 µM
  TGI: 50.8 µM
UACC-257 melanoma
  GI50: > 100 µM
  TGI: > 100 µM
TK-10 renal
  GI50: 20.3 µM
  TGI: > 100 µM
SNB-19 CNS
  GI50: 34.3 µM
  TGI: > 100 µM
COLO 205 colon
  GI50: > 100 µM
  TGI: > 100 µM
SK-MEL-2 melanoma
  GI50: > 100 µM
  TGI: > 100 µM

## O=C(c1ccc(C(F)(F)F)c(Cl)c1)N(Cc1ccc(Cl)cc1)c1ccc(-c2cc(C(F)(F)F)[nH]n2)c(O)c1
NCI-H460 lung
  GI50: 1.16 µM
  TGI: 3.12 µM
U251 CNS
  GI50: 0.882 µM
  TGI: 2.25 µM
SR leukemia
  GI50: 0.983 µM
  TGI: 2.87 µM
K-562 leukemia
  GI50: 1.05 µM
  TGI: 5.16 µM
UACC-62 melanoma
  GI50: 0.8 µM
  TGI: 1.97 µM
UACC-257 melanoma
  GI50: 1.04 µM
  TGI: 3.57 µM
TK-10 renal
  GI50: 1.41 µM
  TGI: 3.99 µM
SNB-19 CNS
  GI50: 1.61 µM
  TGI: 6.35 µM
COLO 205 colon
  GI50: 0.865 µM
  TGI: 1.64 µM
SK-MEL-2 melanoma
  GI50: 1.16 µM
  TGI: 3.13 µM

## c1ccncc1
NCI-H460 lung
  TGI: > 100 µM
U251 CNS
  TGI: > 100 µM
SR leukemia
  TGI: > 100 µM
K-562 leukemia
  TGI: > 100 µM
UACC-62 melanoma
  TGI: > 100 µM
UACC-257 melanoma
  TGI: > 100 µM
TK-10 renal
  TGI: > 100 µM
SNB-19 CNS
  TGI: > 100 µM
COLO 205 colon
  TGI: > 100 µM
SK-MEL-2 melanoma
  TGI: > 100 µM

## NS(=O)(=O)c1ccc(NC(=O)Cc2nc3ccccc3s2)cc1
NCI-H460 lung
  TGI: 35.6 µM
U251 CNS
  TGI: 28.5 µM
SR leukemia
  TGI: 71 µM
K-562 leukemia
  TGI: 59.4 µM
UACC-62 melanoma
  TGI: 29.4 µM
UACC-257 melanoma
  TGI: 29.6 µM
TK-10 renal
  TGI: 44.9 µM
SNB-19 CNS
  TGI: 49.5 µM
COLO 205 colon
  TGI: 34 µM
SK-MEL-2 melanoma
  TGI: 31.9 µM

## O=c1[nH]c(=O)n(C2CC(O)C(CO)O2)cc1C(F)(C(F)(F)F)C(F)(F)F (stereo not drawn)
NCI-H460 lung
  TGI: > 100 µM
U251 CNS
  TGI: > 100 µM
SR leukemia
  TGI: > 100 µM
K-562 leukemia
  TGI: > 100 µM
UACC-62 melanoma
  TGI: > 100 µM
UACC-257 melanoma
  TGI: > 100 µM
TK-10 renal
  TGI: > 100 µM
SNB-19 CNS
  TGI: > 100 µM
COLO 205 colon
  TGI: > 100 µM
SK-MEL-2 melanoma
  TGI: > 100 µM
